The values that follow come from ChEMBL document CHEMBL1134996, “Non-peptide alpha(v)beta(3) antagonists. Part 5: identification of potent RGD mimetics incorporating 2-aryl beta-amino acids as aspartic acid replacements” (Bioorg Med Chem Lett, 2002).

For orientation: bioavailability means dose-corrected exposure relative to a reference, in per cent. A low value points to poor availability. The IC50 is the concentration that inhibits the measured activity by half. Read a high IC50 as lower potency.

A short description of series [1]: Bioavailability in dog. Particulars: in vivo. It is filed as ADME, organism-based, Canis lupus familiaris.
A further series addresses Integrin alpha-V/beta-3 (Homo sapiens, UniProt P05106+P06756). The experiment in a line: Inhibition of binding to human integrin receptor alpha V beta3. It is filed as protein-complex assay.
Series [2] in a line: Clearance after oral and iv dosing in dogs. The format is ADME, organism-based, Canis lupus familiaris. Particulars: dog, in vivo, read-out: CI.

Integrin alpha-V/beta-3, sequence (P05106 27-788 limits assumed): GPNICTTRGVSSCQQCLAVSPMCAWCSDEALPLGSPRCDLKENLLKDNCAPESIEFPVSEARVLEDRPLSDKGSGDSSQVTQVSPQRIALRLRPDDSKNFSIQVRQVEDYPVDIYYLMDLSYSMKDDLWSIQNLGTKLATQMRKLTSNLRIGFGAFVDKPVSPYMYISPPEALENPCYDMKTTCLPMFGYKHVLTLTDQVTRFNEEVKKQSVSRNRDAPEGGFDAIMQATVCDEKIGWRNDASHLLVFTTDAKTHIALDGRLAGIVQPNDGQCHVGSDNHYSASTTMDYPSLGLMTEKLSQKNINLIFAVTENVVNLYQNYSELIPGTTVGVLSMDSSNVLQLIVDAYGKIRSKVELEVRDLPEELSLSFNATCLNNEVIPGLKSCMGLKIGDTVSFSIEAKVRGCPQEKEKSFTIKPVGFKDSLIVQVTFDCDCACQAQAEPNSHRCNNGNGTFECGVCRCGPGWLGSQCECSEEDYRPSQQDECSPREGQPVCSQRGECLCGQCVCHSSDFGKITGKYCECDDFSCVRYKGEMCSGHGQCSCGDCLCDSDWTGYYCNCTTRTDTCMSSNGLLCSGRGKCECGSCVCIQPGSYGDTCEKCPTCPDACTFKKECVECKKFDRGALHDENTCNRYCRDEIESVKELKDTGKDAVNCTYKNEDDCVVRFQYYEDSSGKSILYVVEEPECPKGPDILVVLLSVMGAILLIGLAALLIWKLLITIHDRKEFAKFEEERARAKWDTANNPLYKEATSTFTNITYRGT
Integrin alpha-V/beta-3, sequence (P06756 31-889 limits assumed): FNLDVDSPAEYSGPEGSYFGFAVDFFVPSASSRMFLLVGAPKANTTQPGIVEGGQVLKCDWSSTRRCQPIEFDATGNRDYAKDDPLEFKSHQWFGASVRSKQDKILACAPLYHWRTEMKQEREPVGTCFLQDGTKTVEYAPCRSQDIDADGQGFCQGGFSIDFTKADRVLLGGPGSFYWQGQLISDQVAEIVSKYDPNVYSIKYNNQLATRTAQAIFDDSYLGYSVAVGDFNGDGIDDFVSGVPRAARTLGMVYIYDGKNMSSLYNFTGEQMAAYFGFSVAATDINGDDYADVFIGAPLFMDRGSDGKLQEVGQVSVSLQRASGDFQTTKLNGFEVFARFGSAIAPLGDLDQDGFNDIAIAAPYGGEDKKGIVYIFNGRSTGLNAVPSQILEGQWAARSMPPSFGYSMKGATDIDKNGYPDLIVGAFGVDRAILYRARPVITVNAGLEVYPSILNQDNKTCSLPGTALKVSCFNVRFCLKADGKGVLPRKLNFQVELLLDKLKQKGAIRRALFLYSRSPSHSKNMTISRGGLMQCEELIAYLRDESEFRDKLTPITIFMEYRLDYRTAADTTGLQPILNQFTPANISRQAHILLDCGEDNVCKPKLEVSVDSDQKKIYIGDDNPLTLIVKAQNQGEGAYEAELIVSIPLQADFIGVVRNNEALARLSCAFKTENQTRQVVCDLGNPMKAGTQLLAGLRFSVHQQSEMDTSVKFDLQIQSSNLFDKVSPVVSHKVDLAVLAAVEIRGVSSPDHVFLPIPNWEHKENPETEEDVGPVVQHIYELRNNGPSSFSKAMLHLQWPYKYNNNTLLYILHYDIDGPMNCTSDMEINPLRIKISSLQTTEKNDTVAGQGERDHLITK
Integrin alpha-V/beta-3, sequence (P06756 891-1048 limits assumed): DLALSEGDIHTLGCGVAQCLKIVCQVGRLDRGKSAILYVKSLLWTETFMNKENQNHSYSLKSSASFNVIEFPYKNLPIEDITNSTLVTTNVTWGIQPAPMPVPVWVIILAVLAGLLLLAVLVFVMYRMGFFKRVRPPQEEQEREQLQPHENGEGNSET

`O=C(CCC1CCc2cc3c(nc2C1)NCCC3)NCC(C(=O)O)c1ccc2c(c1)OCC2` (stereo not given) showed a bioavailability in series [1] of 1.1%. This compound yielded an IC50 at Integrin alpha-V/beta-3 of 0.72 nM. The clearance in series [2] stood at 18.9 mL/min/kg.
On Integrin alpha-V/beta-3, `O=C(CCCCc1ccc2c(n1)NCCC2)NCC(C(=O)O)c1cccc(F)c1` (stereo not given) gave an IC50 of 10.9 nM. This lies in the double-digit nanomolar range.
For the compound `O=C(CCCCc1ccc2c(n1)NCCC2)NCC(C(=O)O)c1ccc2c(c1)OCC2` (stereo not given), in series [1], the bioavailability amounted to 47%. On Integrin alpha-V/beta-3, this compound came in with a concentration for half-maximal inhibition (IC50) of 1.01 nM. In addition, the clearance in series [2] was 6.6 mL/min/kg.
Taken in the same sequence, the figures for `CN(CC(C(=O)O)c1ccc2c(c1)OCC2)C(=O)CCC1CCc2cc3c(nc2C1)NCCC3` (stereo not given) were 18%, 0.35 nM and 10.3 mL/min/kg.
On to `CN(CC(C(=O)O)c1ccc2c(c1)OCC2)C(=O)CCCCc1ccc2c(n1)NCCC2` (stereo not given), for which, on Integrin alpha-V/beta-3, the IC50 was 0.74 nM.
Compound `O=C(CCCCc1nc2c(cc1C1CC1)CCCN2)NCC(C(=O)O)c1ccc2c(c1)OCC2` (stereo not given) registered a bioavailability in series [1] of 40%. On Integrin alpha-V/beta-3, this compound yielded an IC50 of 0.29 nM. The clearance in series [2] was determined as 13.7 mL/min/kg.
Compound `O=C(O)C[C@H](NC(=O)CCCCc1ccc2c(n1)NCCC2)c1ccccc1` showed a 50% inhibitory concentration (IC50) on Integrin alpha-V/beta-3 of 84 nM.
Same read-out and setting: to `O=C(CCCCc1ccc2c(n1)NCCC2)NCC(C(=O)O)c1cnc2ccccc2c1` (stereo not given) belongs 0.82 nM; to `O=C(CCCCc1ccc2c(n1)NCCC2)NCC(C(=O)O)c1ccccc1` (stereo not given), 57.4 nM; to `CN(CC(C(=O)O)c1ccc2c(c1)OCC2)C(=O)CCCCc1nc2c(cc1C1CC1)CCCN2` (stereo not given), 0.49 nM.
On Integrin alpha-V/beta-3, `O=C(O)C[C@H](NC(=O)CCCCc1ccc2c(n1)NCCC2)c1cnc2ccccc2c1` came in with an IC50 of 1.07 nM.
For `O=C(O)C[C@H](NC(=O)CCCCc1ccc2c(n1)NCCC2)c1ccc2c(c1)OCC2`, the clearance in series [2] worked out at 2 mL/min/kg.
